The record followed here is patent US9512138B2, “Compositions and methods for treating cancer” (The Regents of the University of California, priority 2012, dated 2016).

In data set [1] the test system is A549, H23, H2122 and H1975 NSCLC cells. In words: MTS cell viability/proliferation assay in NSCLC cell lines, 72 h. The class given is cell-based, human. The conditions noted are these: for growth inhibition at 10 μM / growth inhibition at 100 μM: A549, H23, H2122, H1975; for inhibitory activity relative to other analogues: FIG. 5, 0.1-100 μM. The method, then: FIG. 5. Parthenolide analogues JD201-JD210 suppress human lung tumor cell proliferation in vitro. A549, H23, H2122 and H1975 NSCLC cells were treated with increasing concentrations of drugs (0.1-100 μM). After 72 h cell viability was assessed by MTS assay. Viable cells are expressed as percentage of vehicle control. P<0.01 (**), versus control group, P<0.05 (*), versus control group. Natural occurring parthenolide (PTL), parthenolide analogues JD201 (DMAPT)-JD210. Parthenolide analogues inhibit female (H1975, H2122) and male (H23, A549) NSCLC cell proliferation.
To determine the effect of parthenolide analogues in lung cancer cell proliferation we tested two male (A549, H23) and two female (H2122, H1975) lung cancer cell lines with increasing concentrations of parthenolide analogues (0.1, 1, 10 and 100 μM) for 72 hours.

Data set [2] has as its system NF-κB/p65 phosphorylation. Kind of data set: Western blot of phospho-NF-κB/p65 in H23 cells. The class given is cell-based, human. The conditions noted are these: for phosphorylation of the p65 subunit of NF-κB: 10 μM, 60 min (FIG. 7); for phosphorylation of NF-κB/p65: 10 µM, 60 min (FIG. 13). How it is done: FIG. 7. […] After 60 min Western blot were performed using anti-phospho-NF-κB/p65 antibody (Cell Signaling Technology #3031). Membranes were stripped and re-probed with antibody against total NF-κB/p65 (CST #3037).
After 60 min, Western blots were done using anti-phospho-NFκB/p65 antibody (Cell Signaling).
Upon confirming that parthenolide analogues can inhibit NSCLC cell proliferation, induce cell death and enhance the cytotoxicity of chemotherapy, we began to investigate potential cellular mechanisms that may underlie this process. For example, we used Western Blot methods to determine phosphorylation of the p65 subunit of NF-κB. H23 cells were incubated in the presence of vehicle control or 10 μM concentration of the parthenolide derivatives (JD 201, 202, 203, 204) for 60 min. After treatment, cells were collected and homogenized in lysis buffer. Extracts were electrophoresed on 4-20% gradient SDS-PAGE gels and transferred to nitrocellulose membranes. Blots were probed with anti-phospho-NF-κB/p65 and NF-κB/p65 for a loading control.

For data set [3], the system named is NF-κB/p65 phosphorylation. Kind of data set: Western blot of cisplatin-mediated phospho-NF-κB/p65 in A549 cells. The conditions noted are these: 5 μM cisplatin and/or 20 μM analog, time course. The class given is cell-based, human. How it is done: FIG. 9. […] Western blots were then performed using anti-phospho-NF-κB/p65 antibody (Cell Signaling Technology #3036) and anti-phospho-IκBα antibody (CST #2859). Membranes were then stripped and reprobed with antibody against total NF-κB/p65 (CST #3987) and antibody against total IκBα (CST #4814).

In data set [4] the test system is MCF-7/TAMR breast cancer cells. In words: Proliferation of tamoxifen-resistant MCF-7/TMR (TAM-R) cells. The class given is cell-based, human. The conditions noted are these: analogue at varying doses plus tamoxifen 1×10^-7 M, 48 hours; P<0.01. The method, then:
MCF-7/CON cells are tamoxifen-sensitive, while MCF-7/HER2 and MCF-7/TMR cells are known to be tamoxifen-resistant (28,61,66,67). Except for TMR (64,68), cells were routinely cultured in RPMI 1640 media with 10% heat-inactivated FBS (28,64,66). For E2-free conditions, media were changed 48 h before studies to phenol-red free RPMI 1640 with 1% dextran-coated, charcoal-treated (DCC) FBS. TMR cells were derived by long-term continuous exposure of cells to 10^−7 M 4-hydroxy-tamoxifen by established methods (64,68) and were maintained with 10^−7 M 4-hydroxytamoxifen in medium. Levels of ERα and HER2 expression in these several cell lines were determined by use of Western blot methods.
Assays for Tumor Cell Proliferation. Breast tumor cells were be grown in RPMI 1640 media with 10% heat-inactivated FBS (except for TMR and TZR cells as noted above). For estrogen-free conditions, medium were changed 48 h before studies to phenol-red free RPMI 1640 with 1% dextran-coated, charcoal-treated (DCC) FBS, then treated with selected reagents. Cell counts and viability tests (Trypan blue) will be done every 24 hr for […]. After 48-72 hr, proliferation was assessed by cell counts.

For another data set, the system named is SKBR3/TZR cells. Kind of data set: Proliferation of trastuzumab-resistant SKBR3/TZR cells. The class given is cell-based, human. Also noted: dose or concentration left out as unconfirmed. As to conditions: 0.1 to 50 micromolar alone or with trastuzumab, 72 hours. How it is done: Assays for Tumor Cell Proliferation. […] Cell counts and viability tests (Trypan blue) will be done every 24 hr for […]. After 48-72 hr, proliferation was assessed by cell counts.
The human breast cancer cell line SKBR3 (ATCC) was obtained from the American Type Culture Collection (ATCC). Unless otherwise stated, monolayer cultures of SKBR3 were maintained in Dulbeccos' Modified Eagle's Media (DMEM):F12 medium with 10% FBS.

In another data set the test system is ELT3 cells. In words: Proliferation of ELT3 cells (TSC-related disease model). The class given is cell-based, rat. The conditions noted are these: 72 hours, IIA medium with 1% FBS, cell counts. How it is done:
(§1) FIG. 19. […] Cells were counted and plated and then treated with parthenolide analogue JD203 or control for 72 hours using IIA medium with 1% FBS. At the end of the experiments, cell proliferation was quantitated based on cell counts. Experimental results (n=3) shown as % control (mean±SE).
(§2) We have tested inhibitory activity of parthenolide analogues using cell models for TSC-related proliferative disease. The ELT3 cells are a TSC2-null smooth muscle-derived cell line from a rat uterine leiomyoma and often used as a model for lymphangioleiomyomatosis (LAM) and other TSC-related proliferative diseases (75,76). Angiomyolipoma cells (AML) that have inactivating mutations in both alleles of the TSC2 gene were also used as an alternate cell model (77,78). Cells were routinely cultured in IIA complete medium (50% DMEM, 50% F-12, […] NaHCO3, […] FeSO4, 50 nM sodium selenite, […] insulin, 200 nM hydrocortisone, […] transferrin, 1 nM triiodothyronine, 10 mU/ml vasopressin, 10 nM cholesterol, 10 ng/ml epidermal growth factor) containing 15% FBS. For study of proliferation, cells were incubated for 3 days in IIA medium containing 1% FBS. Results of these experiments indicate that parthenolides may also have utility in the treatment of TSC-related proliferative diseases that are not classified as malignancies.

Data set [5] concerns angiomyolipoma (AML) cells. Kind of data set: Proliferation of angiomyolipoma (AML) cells. As to conditions: 72 hours, IIA medium with 1% FBS, cell counts. The class given is cell-based. How it is done:
as §1, §2

A further data set is described as follows: Aqueous solubility. The class given is physicochemical.
Another data set concerns cancer cells. In words: Structure-activity study of antitumor activity. The conditions noted are these: compared to other known parthenolide derivatives such as DMAPT. The source says:
We have developed a set of novel analogues of parthenolide which have both improved aqueous solubility and antitumor properties. An extensive structure-activity study was done to investigate parthenolide and its analogues. […] These water-soluble compounds, for example analog JD206, may be conjugated to sugars or peptides that may be selectively targeted to cancer cells, particularly cancer stem cells.

For a further data set, the system named is MCF-7/HER2 cells. In words: Proliferation of tamoxifen-resistant MCF-7/HER2 cells (cell counts). As to conditions: 72 hours; for proliferation of MCF-7/HER2 cells: 0.1-50 micromolar, cell counts, P<0.001 vs controls.
Data set [6] has as its system cancer stem cells (CSC) derived from NSCLC (H157). Kind of data set: Annexin-V apoptosis assay in lung cancer stem cells. The class given is cell-based, human. As to conditions: compared with bulk NSCLC cells, 3 independent experiments. The method, then: FIG. 3. […] A comparison is performed using bulk NSCLC cells. Results based on annexin-V assays in 3 independent experiments.
Analogues of parthenolide were prepared and purified (FIG. 8) and assessed for antitumor efficacy, to develop the best agents for clinical use. Responses of CSC-like subsets, bulk tumor cells and normal lung epithelial cells to parthenolide (PTL) analogues alone and with chemotherapy are ongoing, with assessments by TUNEL and Annexin-V assay for apoptosis (13) (FIG. 3) and cell proliferation (FIG. 4).

Data set [7] has as its system H157 NSCLC cells (bulk and CSC-subpopulations). In words: Proliferation of NSCLC bulk cells and CSC subpopulations. The conditions noted are these: bulk cell preparations and CSC-subpopulations; drug dose 20 micromolar; P<0.05 vs control. The class given is cell-based, human. The source says:
FIG. 4. […] JD201 drug dose=20 micromolar.
Lung cancer is the leading cause of cancer death in men and women worldwide. The poor prognosis of advanced non-small cell lung cancer (NSCLC) is due, in part, to emergence of tumor resistance to chemotherapy. […] If such minute subsets of CSC drive tumor formation and drug resistance, therapies targeting the bulk tumor mass but not CSC will fail. […] We identified CD133+/ALDH+ tumor stem/progenitor cells from human lung cancer cells in vitro using established Aldefluor assays in combination with labeled anti-CD133 antibodies. […] The antitumor effect of PTL may be due to its action as a potent inhibitor of nuclear factor-KB (NF-κB), which is markedly activated by chemotherapy. To target CSC and suppress tumor progression, we synthesized and tested novel analogs of PTL with improved antitumor properties and aqueous solubility. […] Dose-dependent increments of PTL analogs increase apoptosis of CSC when compared with bulk cells. […] Using Western blots, we find that PTL congeners inhibit phosphorylation of the p65 subunit of phospho-NF-κB and activation of IKKα/β. […]
Analogues of parthenolide were prepared and purified (FIG. 8) and assessed for antitumor efficacy, to develop the best agents for clinical use. […]

Another data set relates to A549 NSCLC xenografts. Kind of data set: A549 NSCLC xenografts in immunodeficient mice. The class given is in vivo.

Each structure is given as a SMILES string. “Also recorded” adds a separate entry of the source. Where a name gives a salt, the structure may show the parent alone.

Experimental for MCF-7/HER2 cells: Assays for Tumor Cell Proliferation. […] Cell counts and viability tests (Trypan blue) will be done every 24 hr for 2-33 days. After 48-72 hr, proliferation was assessed by cell counts.

As to `C/C1=C/CC[C@@]2(C)OC2[C@H]2OC(=O)[C@@H](CN(CCO)CCO)[C@@H]2CC1.O=C(O)/C=C/C(=O)O` (stereo partly drawn) [JD203, (1aR,7aS,8R,10aS,Z)-8-((Bis(2-hydroxyethyl)amino)methyl)-1a,5-dimethyl-2,3,6,7,7a,8,10a, 10b-octahydrooxireno[2′,3′:9,10]cyclodeca[1,2-b]furan-9(1aH)-one, fumaric acid salt], in [1], the “growth inhibition at 10 μM” value is “Significant growth inhibition”; the “growth inhibition at 100 μM” value is listed as “Significant growth inhibition”; the “inhibitory activity relative to other analogues” value was “greater inhibitory activity than compounds 205 and 207”. In [2], the “phosphorylation of the p65 subunit of NF-κB” value is reported as “reduced phosphorylation of the p65 subunit of NF-κB; also recorded: inhibit phosphory-lation of NF-κB/p65” and the “phosphorylation of NF-κB/p65” value is “inhibit phosphorylation of NF-κB/p65”. Besides, the “cisplatin-mediated phosphorylation of NF-κB/p65” value in data set [3] is “inhibit cisplatin-mediated phosphorylation of NF-κB/p65”. Besides, in data set [4], the “proliferation of MCF-7/TAMR cells, combination with tamoxifen” value is recorded as “enhanced blockade of tumor cell proliferation; also recorded: promotes antitumor effects of tamoxifen”. Also, the “proliferation of SKBR3/TZR cells” value in the data set with SKBR3/TZR cells was “reduces proliferation of SKBRS/TZR cells alone and in combination with trastuzumab”. Besides, the “proliferation of ELT3 cells” value in the data set with ELT3 cells was “inhibits proliferation”. Also, in data set [5], the “proliferation of angiomyolipoma (AML) cells” value was “inhibits proliferation”. The “water solubility compared to DMAPT (JD201)” value in “Aqueous solubility” is “improved water solubility”. In addition, in the data set with cancer cells, the “anticancer activity compared to DMAPT (JD201)” value was “strong anticancer activity”. The “proliferation of MCF-7/HER2 cells” value in the data set with MCF-7/HER2 cells is “dose-dependent (0.1-50 micromolar) reduction in proliferation”. The “proliferation of MCF-7/HER2 cells, combination with tamoxifen” value in the data set with MCF-7/HER2 cells (analogue 0.1 to 50 micromolar with tamoxifen 1×10^-7 M, P<0.01) is listed as “greater reduction in cell proliferation than treatment with the analogue alone”.

In the case of `C/C1=C\CC[C@@]2(C)O[C@H]2[C@H]2OC(=O)[C@@H](CN(C)C)[C@@H]2CC1` [JD201, (1aR,7aS,8R,10aS,Z)-8-((Dimethylamino)methyl)-1a,5-dimethyl-2,3,6,7,7a,8,10a,10b-octa-hydrooxireno[2′,3′:9,10]cyclodeca[1,2-b]furan-9(1aH)-one, fumaric acid salt, reference compound], the “apoptosis of cancer stem cells (annexin-V)” value in [6] is reported as “dose-dependent increments in apoptosis”. In data set [7], the “proliferation of NSCLC cells” value is “inhibits proliferation”. In addition, in [1], the “growth inhibition at 10 μM” value is listed as “Significant growth inhibition”; the “growth inhibition at 100 μM” value is on record as “Significant growth inhibition”; the “inhibitory activity relative to other analogues” value was “greater inhibitory activity than compounds 205 and 207”. Also, the “phosphorylation of the p65 subunit of NF-κB” value in data set [2] (listed as 201) is on record as “inhibit phosphory-lation of NF-κB/p65”. Moreover, the “phosphorylation of the p65 subunit of NF-κB” value in [2] (listed as JD 201) is recorded as “reduced phosphorylation of the p65 subunit of NF-κB”. In addition, the “phosphorylation of NF-κB/p65” value in [2] is listed as “inhibit phosphorylation of NF-κB/p65”. The tumor progression result in the data set on A549 NSCLC xenografts (oral gavage 100 mg/kg/day for 21 days vs vehicle control) is listed as “reduction in tumor progression”. In the data set with A549 NSCLC xenografts (oral gavage 100 mg/kg/day for 21 days, vehicle controls 252±31 mm^3), this compound showed a tumor volumes of 55±5 mm^3. Further, the “proliferation of MCF-7/HER2 cells” value in the data set with MCF-7/HER2 cells is “dose-dependent (0.1-50 micromolar) reduction in proliferation”.
